Experimental data published in PMC5477784 (MedChemComm, 2017).

Legend:
[1] = system: other PRMTs including PRMT5; conditions: cited from earlier work
PRMT1 [2] = molecular target: T1, PRMT1 (Homo sapiens, UniProt Q99873); assay: Radiometric gel assay with [14C]SAM and H4-20, phosphorimaging; type: biochemical; conditions: inhibitor 0.2 mM; PRMT1 0.1 μM, [14C]SAM 20 μM, H4-20 100 μM, 30 min, 30°C
PRMT1 [3] = molecular target: T1, PRMT1; assay: Mass spectrometric; type: biochemical; conditions: inhibitor 0.2 mM; PRMT1 1 μM, SAM 200 μM, H4-20 50 μM, 30°C, 3.5 h

T1 sequence (Q99873 1-353 isoform Q99873-3, species assumed): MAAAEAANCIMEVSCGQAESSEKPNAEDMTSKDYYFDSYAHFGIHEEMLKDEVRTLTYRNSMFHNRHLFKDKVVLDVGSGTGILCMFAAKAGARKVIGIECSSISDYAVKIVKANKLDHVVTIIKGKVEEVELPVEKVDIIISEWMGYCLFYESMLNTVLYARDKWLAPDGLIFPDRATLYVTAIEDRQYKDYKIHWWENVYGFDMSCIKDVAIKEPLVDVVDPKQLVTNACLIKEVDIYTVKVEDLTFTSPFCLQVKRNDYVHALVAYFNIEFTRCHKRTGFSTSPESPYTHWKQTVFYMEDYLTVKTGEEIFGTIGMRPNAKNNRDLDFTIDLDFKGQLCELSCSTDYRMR

SMILES: N=C(N)c1ccc(-c2ccc(-c3ccc(C(=N)N)cc3)o2)cc1 [Furamidine, furamidine]
- selectivity over the other PRMTs including PRMT5 [1]: > 10 fold
- methylation in radiometric gel assay (PRMT1 [2]): methylation was still observed
- methyl transfer reaction H4-20 to dimethyl H4-20 (mass spectrum) (PRMT1 [3]): incomplete inhibition
